Consider 23 molecules from patent US11285135B2 (AMGEN INC., priority 2016, dated 2022).

Where two headings read alike, the source gives them in different places.

Test [1] deals with GDP-bound protein (aa 1-169), containing both G12C and C118A amino acid substitutions (Homo sapiens, UniProt P01116, C118A/G12C). The experiment in a line: Coupled Nucleotide Exchange Assay (SOS-mediated nucleotide exchange, AlphaScreen). The test is classed as biochemical. The settings on record: 2 hours compound pre-incubation. An outline of the steps:
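His-tagged GDP-bound […] (aa 1-169, G12C/C118A) pre-incubated 2 h with compound titration in 25 mM HEPES pH 7.4, 10 mM MgCl2, 0.01% Triton X-100.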
On the technique in general: Alpha assays give light when donor and acceptor beads are brought close together.

For test [2], the system named is Phosphorylation of ERK½ in MIA PaCa-2 cells. As to the kind of experiment: Phospho-ERK½ MSD Assay in MIA PaCa-2 cells. It counts as cell-based. To be noted: 4 hours compound treatment, 10 ng/mL EGF for 10 min, read-out: p-ERK IC50 (MIA PaCa-2). The method, boiled down: (§1)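 MIA PaCa-2 or A549 cells (25,000/well, RPMI with 10% FBS) exposed to compound titration for 4 h at 37 °C, then stimulated with 10 ng/mL EGF for 10 min and lysed in RIPA. Phospho-ERK1/2 quantified by MSD whole-cell lysate immunoassay; IC50 from 4-parameter logistic fit.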

Test [3] relates to Phosphorylation of ERK½ in A549 cells. As to the kind of experiment: Phospho-ERK½ MSD Assay in A549 cells. The test is classed as cell-based. To be noted: Homo sapiens, A549, A549 cells; 4 hours compound treatment; 10 ng/mL EGF for 10 min; read-out: p-ERK IC50 (A549). The method, boiled down:
as §1

Setting [4] is: Homo sapiens, MIA PaCa-2, MIA PaCa-2 cells.

GDP-bound protein (aa 1-169), containing both G12C and C118A amino acid substitutions, sequence (P01116 1-169 isoform P01116-2 G12C/C118A): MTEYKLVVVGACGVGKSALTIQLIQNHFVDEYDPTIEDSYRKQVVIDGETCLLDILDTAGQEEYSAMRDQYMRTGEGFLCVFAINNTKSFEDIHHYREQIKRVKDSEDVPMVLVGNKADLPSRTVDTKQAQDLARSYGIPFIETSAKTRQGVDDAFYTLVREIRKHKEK

By IC50 is commonly meant the concentration that inhibits the measured activity by half. With `C=CC(=O)N1CCN(c2snc3c(F)c(-c4c(O)ccc5ccccc45)c(Cl)cc23)CC1` [Example 1-14, 1-(4-(5-chloro-7-fluoro-6-(2-hydroxy-1-naphthalenyl)-2,1-benzothiazol-3-yl)-1-piperazinyl)-2-propen-1-one], the “Coupled exchange IC50” value in test [1] was 1.78 µM. Further, the 50% inhibitory concentration (IC50) is 5.03 µM in test [2] (setting [4]) and above 100 µM in test [3].

Regarding `C=CC(=O)N1CCN(c2snc3c(F)c(-c4cc(O)cc5ccccc45)c(Cl)cc23)[C@@H](CO)C1` [Example 1-15], in test [1], the “Coupled exchange IC50” value is 0.562 µM. For the same molecule, the IC50 in test [2] (setting [4]) was 4.7 µM; in test [3] it was above 100 µM.

Turning to `C=CC(=O)N1CCN(c2snc3c(F)c(-c4cc(O)cc5ccccc45)c(Cl)cc23)[C@@H](C)C1` [Example 1-19, 1-((3S)-4-(5-chloro-7-fluoro-6-(3-hydroxy-1-naphthalenyl)-2,1-benzothiazol-3-yl)-3-methyl-1-piperazinyl)-2-propen-1-one], the “Coupled exchange IC50” value in test [1] amounted to 0.297 µM. Further, the IC50 in test [2] (MIA PaCa-2 cells) is 1.33 µM; in test [3], above 100 µM.

Take `C=CC(=O)N1CC(Nc2snc3c(F)c(-c4cc(O)cc5ccccc45)c(Cl)cc23)C1` [Example 1-20, 1-(3-((5-chloro-7-fluoro-6-(3-hydroxy-1-naphthalenyl)-2,1-benzothiazol-3-yl)amino)-1-azetidinyl)-2-propen-1-one]: the “Coupled exchange IC50” value in test [1] was found to be 0.683 µM. Moreover, the values for the IC50 in test [2] (setting [4]) and in test [3] were 4.99 µM and above 100 µM, respectively.

For `C=CC(=O)N1CCN(c2snc3c(F)c(-c4cc(O)cc5ccccc45)c(Cl)cc23)[C@H](C)C1` [Example 1-21, 1-((3R)-4-(5-chloro-7-fluoro-6-(3-hydroxy-1-naphthalenyl)-2,1-benzothiazol-3-yl)-3-methyl-1-piperazinyl)-2-propen-1-one], the “Coupled exchange IC50” value in test [1] came out at 1.30 µM. In addition, the IC50 in test [2] (setting [4]) is 4.89 µM; in test [3], above 100 µM.

On to `C=CC(=O)N1CCN(c2snc3nc(-c4cc(O)cc5ccccc45)c(Cl)cc23)CC1` [Example 2-1, 1-(4-(5-chloro-6-(3-hydroxy-1-naphthalenyl)[1,2]thiazolo[3,4-b]pyridin-3-yl)-1-piperazinyl)-2-propen-1-one], for which the “Coupled exchange IC50” value in test [1] was 0.341 µM. Also, the IC50 in test [2] (setting [4]) was 1.89 µM; in test [3] it was 3.7 µM.

As for `C=CC(=O)N1CCN(c2snc3c(F)c(-c4cc(O)cc5ccccc45)c(Cl)cc23)CC1` [Example 3-1, 1-(4-(5-Chloro-7-fluoro-6-(3-hydroxynaphthalen-1-yl)benzo[c]isothiazol-3-yl)piperazin-1-yl)prop-2-en-1-one], the “Coupled exchange IC50” value in test [1] came to 0.266 µM. Besides, the values for the half-maximal inhibitory concentration (IC50) in test [2] (MIA PaCa-2 cells) and in test [3] were 3.23 µM and above 100 µM, respectively.

In the case of `C=CC(=O)N1CCN(c2snc3c(F)c(-c4c(C)ccc5[nH]ncc45)c(Cl)cc23)CC1` [Example 3-5, 1-(4-(5-chloro-7-fluoro-6-(5-methyl-1H-indazol-4-yl)-2,1-benzothiazol-3-yl)-1-piperazinyl)-2-propen-1-one], the “Coupled exchange IC50” value in test [1] was determined as 0.693 µM. Besides, the half-maximal inhibitory concentration (IC50) in test [2] (setting [4]) amounted to 5.26 µM; in test [3], 3.7 µM.

`C=CC(=O)N1CCN(c2snc3c(F)c(-c4c(O)cccc4F)c(Cl)cc23)CC1` [Example 3-6, 1-(4-(5-chloro-7-fluoro-6-(2-fluoro-6-hydroxyphenyl)-2,1-benzothiazol-3-yl)-1-piperazinyl)-2-propen-1-one]: the “Coupled exchange IC50” value in test [1] was determined as 1.05 µM. The IC50 was 11.8 µM in test [2] (setting [4]) and above 100 µM in test [3].

With `C=CC(=O)N1CCN(c2snc3c(F)c(-c4cc(O)ccc4C)c(Cl)cc23)CC1` [Example 3-8, 1-(4-(5-chloro-7-fluoro-6-(5-hydroxy-2-methylphenyl)-2,1-benzothiazol-3-yl)-1-piperazinyl)-2-propen-1-one], the “Coupled exchange IC50” value in test [1] worked out at 1.07 µM. Further, the IC50 in test [2] (setting [4]) is 7.05 µM; in test [3], above 100 µM.

With `C=CC(=O)N1CCN(c2snc3c(F)c(-c4cc(OC)ccc4Cl)c(Cl)cc23)CC1` [Example 3-9, 1-(4-(5-chloro-6-(2-chloro-5-methoxyphenyl)-7-fluoro-2,1-benzothiazol-3-yl)-1-piperazinyl)-2-propen-1-one], the “Coupled exchange IC50” value in test [1] was found to be 3.37 µM. The half-maximal inhibitory concentration (IC50) in test [2] (setting [4]) is 9.25 µM; in test [3], above 33.3 µM.

As for `C=CC(=O)N1CCN(c2snc3c(F)c(-c4cc(O)c(F)cc4F)c(Cl)cc23)CC1` [Example 3-10, 1-(4-(5-chloro-6-(2,4-difluoro-5-hydroxyphenyl)-7-fluoro-2,1-benzothiazol-3-yl)-1-piperazinyl)-2-propen-1-one], the “Coupled exchange IC50” value in test [1] was 4.74 µM. Also, the IC50 in test [2] (setting [4]) is 66.4 µM; in test [3], 11.1 µM.

Regarding `C=CC(=O)N1CCN(c2snc3c(F)c(-c4cc(O)ccc4Cl)c(Cl)cc23)CC1` [Example 3-11, 1-(4-(5-chloro-6-(2-chloro-5-hydroxyphenyl)-7-fluoro-2,1-benzothiazol-3-yl)-1-piperazinyl)-2-propen-1-one], the “Coupled exchange IC50” value in test [1] is 0.457 µM. Further, the 50% inhibitory concentration (IC50) was 3.06 µM in test [2] (setting [4]) and 11.1 µM in test [3].

In the case of `C=CC(=O)N1CCN(c2snc3c(F)c(-c4cc(N)ccc4C)c(Cl)cc23)CC1` [Example 3-12, 1-(4-(6-(5-amino-2-methylphenyl)-5-chloro-7-fluoro-2,1-benzothiazol-3-yl)-1-piperazinyl)-2-propen-1-one], in test [1], the “Coupled exchange IC50” value was 2.56 µM. For the same molecule, the IC50 in test [2] (setting [4]) was 7.66 µM; in test [3], above 100 µM.

For `C=CC(=O)N1CCN(c2snc3c(F)c(-c4cc(N)cc(F)c4F)c(Cl)cc23)CC1` [Example 3-15, 1-(4-(6-(5-amino-2,3-difluorophenyl)-5-chloro-7-fluoro-2,1-benzothiazol-3-yl)-1-piperazinyl)-2-propen-1-one], the “Coupled exchange IC50” value in test [1] is 4.03 µM. The IC50 in test [2] (setting [4]) is 20.1 µM; in test [3] it was above 100 µM.

With `C=CC(=O)N1CCN(c2snc3c(F)c(-c4cc(O)cc(F)c4F)c(Cl)cc23)CC1` [Example 3-16, 1-(4-(5-chloro-6-(2,3-difluoro-5-hydroxyphenyl)-7-fluoro-2,1-benzothiazol-3-yl)-1-piperazinyl)-2-propen-1-one], the “Coupled exchange IC50” value in test [1] turned out to be 2.60 µM. Moreover, the results for the 50% inhibitory concentration (IC50) in test [2] (setting [4]) and in test [3] were 21.3 µM and above 100 µM, respectively.

With `C=CC(=O)N1CCN(c2snc3c(F)c(-c4cc(O)c(F)cc4Cl)c(Cl)cc23)CC1` [Example 3-18, 1-(4-(5-chloro-6-(2-chloro-4-fluoro-5-hydroxyphenyl)-7-fluoro-2,1-benzothiazol-3-yl)-1-piperazinyl)-2-propen-1-one], in test [1], the “Coupled exchange IC50” value stood at 2.60 µM. The 50% inhibitory concentration (IC50) in test [2] (setting [4]) and in test [3] was above 100 µM throughout.

Consider `C=CC(=O)N1CCN(c2snc3c(F)c(-c4cc(N)ccc4Cl)c(Cl)cc23)CC1` [Example 3-19, 1-(4-(6-(5-amino-2-chlorophenyl)-5-chloro-7-fluoro-2,1-benzothiazol-3-yl)-1-piperazinyl)-2-propen-1-one], for which the “Coupled exchange IC50” value in test [1] is 0.954 µM. Besides, the IC50 in test [2] (setting [4]) was 2.03 µM; in test [3] it was above 33.3 µM.

In the case of `C=CC(=O)N1CCN(c2snc3c(F)c(-c4cc(N)c(Cl)cc4Cl)c(Cl)cc23)CC1` [Example 3-20, 1-(4-(6-(5-amino-2,4-dichlorophenyl)-5-chloro-7-fluoro-2,1-benzothiazol-3-yl)-1-piperazinyl)-2-propen-l-one], the “Coupled exchange IC50” value in test [1] was found to be 2.99 µM. Besides, the figures for the IC50 in test [2] (setting [4]) and in test [3] were 9.65 µM and above 100 µM, respectively.

On to `C=CC(=O)N1CCN(c2snc3c(F)c(-c4cc(O)cc(Cl)c4Cl)c(Cl)cc23)CC1` [Example 3-22, 1-(4-(5-chloro-6-(2,3-dichloro-5-hydroxyphenyl)-7-fluoro-2,1-benzothiazol-3-yl)-1-piperazinyl)-2-propen-1-one], for which the “Coupled exchange IC50” value in test [1] came to 0.249 µM. Also, the results for the half-maximal inhibitory concentration (IC50) in test [2] (setting [4]) and in test [3] were 1.12 µM and above 33.3 µM, respectively.

Take `C=CC(=O)N1CCN(c2snc3c(F)c(-c4cccc5ccccc45)c(Cl)cc23)CC1` [Example 3-23, 1-(4-(5-chloro-7-fluoro-6-(naphthalen-1-yl)benzo[c]isothiazol-3-yl)piperazin-1-yl)prop-2-en-1-one]: the “Coupled exchange IC50” value in test [1] came to 4.65 µM. Further, the half-maximal inhibitory concentration (IC50) is 13.6 µM in test [2] (setting [4]) and above 100 µM in test [3].

In the case of `C=CC(=O)N1CCN(c2snc3c(F)c(-c4cccc5cccnc45)c(Cl)cc23)CC1` [Example 3-24, 1-(4-(5-chloro-7-fluoro-6-(quinolin-8-yl)benzo[c]isothiazol-3-yl)piperazin-1-yl)prop-2-en-1-one], the “Coupled exchange IC50” value in test [1] was 9.07 µM. Besides, the half-inhibitory concentration (IC50) was 23.7 µM in test [2] (setting [4]) and above 100 µM in test [3].

Consider `C=CC(=O)N1CC2(C1)CN(c1snc3c(F)c(-c4cc(O)cc5ccccc45)c(Cl)cc13)C2` [Example 4-1, 1-(6-(5-Chloro-7-fluoro-6-(3-hydroxynaphthalen-1-yl)benzo[c]isothiazol-3-yl)-2,6-diazaspiro[3.3]heptan-2-yl)prop-2-en-1-one], for which the “Coupled exchange IC50” value in test [1] amounted to 0.529 µM. Moreover, the IC50 was 2.34 µM in test [2] (setting [4]) and above 100 µM in test [3].
